Assay results reported in patent US20100227918A1, “STREPTOMYCES-DERIVED ANTIMICROBIAL COMPOUND AND METHOD OF USING SAME AGAINST ANTIBIOTIC-RESISTANT BACTERIA” (Taro Pharmaceuticals North America, Inc., priority 2006, published 2010).

Columns and labels:
E. coli = experiment: antimicrobial paper disc assay (zone of inhibition); assay type: cell-based; details: known antibiotic controls, zone diameters of the classes (L1)
Procedure: (§1) The antimicrobial assay was performed as described in USP (See, Molecular Cloning, A Laboratory Manual). In brief, tested microorganism strains were grown in optimal culture media for growth at the optimal growth temperature for about 16 hours with shaking. Tested plates were prepared as follows. First, base agar layer-media were prepared as per USP. The media were then autoclaved, and cooled to 48° C. Once cooled to 48° C., 20 mL of the cooled media was poured onto a sterile polystyrene petri dish. This base agar layer was further allowed to solidify for 30 minutes (agar was added as a solidifying agent). Second, seed agar layers were prepared as per USP. The media were then autoclaved, and cooled to 48° C. Once cooled to 48° C., 1 mL of tested microorganism strain (already grown for 16 hours as described in the first step above) was added to the seed agar media. The seed agar media was gently swirled to mix. Five (5) mL of the seed agar media was pipetted on top of the base agar layer. Care was taken to avoid air bubbles. This seed agar media was allowed to cool for about 15 minutes at room temperature. Plates were stored at 4° C. until needed.
(§2) Ten (10) μl of each of the concentrated supernatants (described above) were pipetted onto a sterile filter paper disc. The sterile filter paper discs were dried in air for approximately 5 minutes. The sterile filter paper discs were carefully applied onto the surface of the plates (prepared as described above). Plates holding sterile filter discs were incubated either at 37° C. (for Micrococcus luteus, E. coli, and Pseudomonas aeriginosa) or at 30° C. (for Candida albicans) for a timer period of 24 hours. Negative controls included liquid culture media. Positive controls included known antimicrobial compounds such as vancomycin (against gram-positive bacteria), tetracycline (against gram-positive/gram-negative bacteria), and amphotericin B (against yeast/fungi).
(§3) Antimicrobial Assays: 10 μl of the 10-fold concentrated supernatants from each of the six (6) isolated colony was assayed for their antimicrobial activity against the twelve (12) microorganisms as listed above. The antimicrobial assay used in the tertiary screening was similar to that used in the secondary screening. In brief, tested microorganism strains were grown in optimal culture media for growth at the optimal growth temperature for about 16 hours with shaking. Tested plates were prepared as follows. First, base agar layer-media were prepared as per USP. The media were then autoclaved, and cooled to 48° C. Once cooled to 48° C., 20 mL of the cooled media was poured onto a sterile polystyrene petri dish. This base agar layer was further allowed to solidify for 30 minutes (agar was added as a solidifying agent). Second, seed agar layers were prepared as per USP. The media were then autoclaved, and cooled to 48° C. Once cooled to 48° C., 1 mL of tested microorganism strain (already grown for 16 hours as described in the first step above) was added to the seed agar media. The seed agar media was gently swirled to mix. Five (5) mL of the seed agar media was pipetted on top of the base agar layer. Care was taken to avoid air bubbles. This seed agar media was allowed to cool for about 15 minutes at room temperature. Plates were stored at 4° C. until needed.
(§4) Ten (10) μl of each of the concentrated supernatants were pipetted onto a sterile filter paper disc. The sterile filter paper discs were dried in air for approximately 5 minutes. The sterile filter paper discs were carefully applied onto the surface of the plates. Plates holding sterile filter discs were incubated either at 37° C. (for Staphylococcus aureus, MRSA, VRSA, Enterococcus faecilis, VRE, Micrococcus luteus, E. coli, Serratia marcesens and Pseudomonas aeriginosa) or at 30° C. (for Candida albicans) for a time period of 24 hours. Negative controls included liquid culture media.

Candida albicans = experiment: as above; assay type: cell-based; details: known antibiotic controls, zone diameters of the classes (L1)
Procedure: as §1, §2, §3, §4

Mycobacteria smegmatis = details: Journal of Antibiotics 29(7), 756-8; cited from earlier work
Pseudomonas aeriginosa = experiment: antimicrobial paper disc assay (zone of inhibition); assay type: cell-based; details: known antibiotic controls, zone diameters of the classes (L1)
Procedure: as §1, §2, §3, §4

[1] = system: Methicillin-Resistant Staphylococcus aureus; experiment: as above; assay type: cell-based; details: HPLC-purified material (>99% purity) diluted to 0.1 μg/mL, known antibiotic controls, zone diameters of the classes (L1)
Serratia marcesens = experiment: as above; assay type: cell-based; details: known antibiotic controls, zone diameters of the classes (L1)
Procedure: as §3
as §4, with “media. Positive controls included known antimicrobial compounds such as vancomycin (against gram-positive bacteria), tetracycline (against gram-positive/gram-negative bacteria), and amphotericin B (against yeast/fungi).” for “media.”
(§5) In general, a zone of inhibition visualized as having a diameter of about 7-10 mm is classified as “+”; a diameter of about 11-14 mm is “++”; a diameter of about 15-18 mm is “+++”; a diameter of about 19-22 mm is “++++”, and a diameter of greater than 23 mm is classified as “+++++”.
(§6) The HPLC-purified material was diluted with sterile distilled water to a concentration of 0.1 μg/mL. The diluted HPLC-purified material was assayed for antimicrobial activity using the antimicrobial assay as described above. The diluted HPLC-purified material was assayed for its antimicrobial activity against ten (10) microorganisms; namely, 1) Staphylococcus aureus; 2) methicillin-resistant Staphylococcus aureus; 3) vancomycin-resistant Staphylococcus aureus; 4) Enterococcus faecilis; 5) vancomycin-resistant Enterococcus faecilis; 6) Mycobacterium smegmatis; 7) E. coli; 8) Pseudomonas aeriginosa; 9) Serratia marcesens; and 10) Candida albicans.

Enterococcus faecilis = experiment: as above; assay type: cell-based; details: HPLC-purified material (>99% purity) diluted to 0.1 μg/mL, known antibiotic controls, zone diameters of the classes (L1)
Procedure: as §3
as §4, with “media. Positive controls included known antimicrobial compounds such as vancomycin (against gram-positive bacteria), tetracycline (against gram-positive/gram-negative bacteria), and amphotericin B (against yeast/fungi).” for “media.”
as §5, §6

Mycobacterium smegmatis = experiment: as above; assay type: cell-based; details: HPLC-purified material (>99% purity) diluted to 0.1 μg/mL, known antibiotic controls, zone diameters of the classes (L1)
Procedure: as §3
as §4, with “media. Positive controls included known antimicrobial compounds such as vancomycin (against gram-positive bacteria), tetracycline (against gram-positive/gram-negative bacteria), and amphotericin B (against yeast/fungi).” for “media.”
as §5, §6

[2] = system: Vancomycin-Resistant Staphylococcus aureus; experiment: as above; assay type: cell-based; details: HPLC-purified material (>99% purity) diluted to 0.1 μg/mL, zone diameters of the classes (L1)
Procedure: as §3
as §4, with “media. Positive controls included known antimicrobial compounds such as vancomycin (against gram-positive bacteria), tetracycline (against gram-positive/gram-negative bacteria), and amphotericin B (against yeast/fungi).” for “media.”
as §5, §6

[3] = system: Vancomycin-Resistant Enterococcus faecilis; experiment: as above; assay type: cell-based; details: HPLC-purified material (>99% purity) diluted to 0.1 μg/mL, zone diameters of the classes (L1)
Procedure: as §3
as §4, with “media. Positive controls included known antimicrobial compounds such as vancomycin (against gram-positive bacteria), tetracycline (against gram-positive/gram-negative bacteria), and amphotericin B (against yeast/fungi).” for “media.”
as §5, §6

Staphylococcus aureus = experiment: as above; assay type: cell-based; details: HPLC-purified material (>99% purity) diluted to 0.1 μg/mL, known antibiotic controls, zone diameters of the classes (L1)
Procedure: Ten (10) μl of each of the concentrated supernatants were pipetted onto a sterile filter paper disc. The sterile filter paper discs were dried in air for approximately 5 minutes. The sterile filter paper discs were carefully applied onto the surface of the plates. Plates holding sterile filter discs were incubated either at 37° C. […]

[4] = system: methicillin or vancomycin resistant gram-positive bacteria; details: prior art; cited from earlier work
[5] = system: some gram-positive bacteria (such as Staphylococcus and Streptococcus); details: prior art, U.S. Pat. No. 3,966,913 and Japanese patents; cited from earlier work
[6] = system: penicillin-resistant Staphylococcus; details: prior art; cited from earlier work
[7] = HPLC-purified material (>99% purity) diluted to 0.1 μg/mL, paper disc assay
[8] = tertiary screening, 10 μl of 10-fold concentrated supernatant on paper disc, 37° C., 24 hours

CN(C)[C@@H]1C(O)=C(C(N)=O)C(=O)[C@@]2(O)C(O)=C3C(=O)c4c(O)cccc4[C@@](C)(O)[C@H]3C[C@@H]12 [tetracycline]
Antimicrobial Activity (zone of inhibition), E. coli (E. coli; [7]): tetracycline (+++++)
Antimicrobial Activity (zone of inhibition), E. coli (E. coli; [8]): tetracycline (+++++)

C[C@@H]1[C@H](O)[C@@H](C)/C=C/C=C/C=C/C=C/C=C/C=C/C=C/[C@H](O[C@@H]2O[C@H](C)[C@@H](O)[C@H](N)[C@@H]2O)C[C@@H]2O[C@](O)(C[C@@H](O)C[C@@H](O)[C@H](O)CC[C@@H](O)C[C@@H](O)CC(=O)O[C@H]1C)C[C@H](O)[C@H]2C(=O)O [amphotericin B]
Antimicrobial Activity (zone of inhibition), Candida albicans (Candida albicans; [7]): amphotericin B (+++++)
Antimicrobial Activity (zone of inhibition), Candida albicans (Candida albicans; tertiary screening, 10 μl of 10-fold concentrated supernatant on paper disc, 30° C., 24 hours): amphotericin B (+++++)

CC1OC2CC(=O)OC2C2=C1C(=O)c1c(ccc(C3CC(N(C)C)C(O)C(C)O3)c1O)C2=O [Purified Lactoquinomycin, 2H-Furo[3,2-b]naphtho[2,3-d]pyran-2,6,11-trione,3,3a,5,11b-tetrahydro-7-hydroxy-5-methyl-8-[2,3,6-trideoxy-3-(dimethylamino)-β-D-arabino-hexopyranosyl]-,(3aR,5R,11bR)]
antimicrobial activity against mycobacteria (i.e. Mycobacteria smegmatis) (Mycobacteria smegmatis): no antimicrobial activity
Antimicrobial Activity (zone of inhibition), E. coli (E. coli; [7]): −
Antimicrobial Activity (zone of inhibition), Pseudomonas aeriginosa (Pseudomonas aeriginosa; [7]): −
Antimicrobial Activity (zone of inhibition), Candida albicans (Candida albicans; [7]): −
Antimicrobial Activity (zone of inhibition), Methicillin-Resistant Staphylococcus aureus [1]: +++++
Antimicrobial Activity (zone of inhibition), Serratia marcesens (Serratia marcesens; [7]): −
Antimicrobial Activity (zone of inhibition), Enterococcus faecilis (Enterococcus faecilis): +++
Antimicrobial Activity (zone of inhibition), Mycobacterium smegmatis (Mycobacterium smegmatis): +++++
Antimicrobial Activity (zone of inhibition), Vancomycin-Resistant Staphylococcus aureus [2]: +++++
Antimicrobial Activity (zone of inhibition), Vancomycin-Resistant Enterococcus faecilis [3]: +++
Antimicrobial Activity (zone of inhibition), Staphylococcus aureus (Staphylococcus aureus): +++++

CC1OC2CC(=O)OC2C2=C1C(=O)c1c(ccc(C3CC(N(C)C)C(O)C(C)O3)c1O)C2=O (stereo not shown) [Lactoquinomycin A]
antimicrobial activity against methicillin or vancomycin resistant gram-positive bacteria [4]: no antimicrobial activity
antimicrobial activity against some gram-positive bacteria (such as Staphylococcus and Streptococcus) [5]: exert an antimicrobial activity
antimicrobial activity against certain penicillin-resistant Staphylococcus [6]: exert an antimicrobial activity

gentamicin
Antimicrobial Activity (zone of inhibition), Pseudomonas aeriginosa (Pseudomonas aeriginosa; [7]): gentamicin (+++++)
Antimicrobial Activity (zone of inhibition), Pseudomonas aeriginosa (Pseudomonas aeriginosa; [8]): gentamicin (+++++)
Antimicrobial Activity (zone of inhibition), Serratia marcesens (Serratia marcesens; [7]): gentamicin (+++++)
Antimicrobial Activity (zone of inhibition), Serratia marcesens (Serratia marcesens; [8]): gentamicin (+++++)
